Columns and labels:
[1] = tested on: Staphylococcus aureus 447; test: MIC, standard broth micro-dilution assay, SA447; format: cell-based
[2] = tested on: Streptococcus pyogenes C203; test: MIC, standard broth micro-dilution assay, SPY C203; format: cell-based
[3] = tested on: Staphylococcus haemolyticus 105; test: MIC, standard broth micro-dilution assay, SH 105; format: cell-based
[4] = tested on: Enterococcus faecium and faecalis (SENSITIVE); test: MIC, standard broth micro-dilution assay, sensitive enterococci; format: cell-based; conditions: geometric mean of 4-6 isolates
[5] = tested on: Staphylococcus epidermidis 270
[6] = tested on: Staphylococcus aureus 446
Protocol: (§1) The minimal inhibitory concentrations (MICs) were determined using a standard broth micro-dilution assay.

[7] = tested on: Enterococcus faecium and faecalis (RESISTANT); conditions: geometric mean of 4-6 isolates
Protocol: as §1

[8] = tested on: Staphylococcus haemolyticus 415; test: MIC, standard broth micro-dilution assay, SH 415; format: cell-based
[9] = tested on: Staphylococcus aureus 489; test: MIC, standard broth micro-dilution assay, SA489; format: cell-based
[10] = tested on: Streptococcus pneumoniae P1
Protocol: as §1

Which results are given for `CC1OC(OC2c3ccc(c(Cl)c3)Oc3cc4cc(c3OC3OC(CO)C(O)C(O)C3OC3CC(C)(N)C(O)C(C)O3)Oc3ccc(cc3Cl)C(O)C(N)C(=O)NC(CC(N)=O)C(=O)NC4C(=O)NC3C(=O)NC2C(=O)NC(C(=O)O)c2cc(O)cc(O)c2-c2cc3ccc2O)CC(C)(N)C1O` (stereo not drawn) [Example 1, DESLEUCYL-A82846B]?
Minimal Inhibitory Concentration (MIC) SA 447 [1]: 64; Minimal Inhibitory Concentration (MIC) SPY C203 [2]: 4; Minimal Inhibitory Concentration (MIC) SH 105 [3]: > 64; Minimal Inhibitory Concentration (MIC) Sensitive [4]: > 128; Minimal Inhibitory Concentration (MIC) SE 270 [5]: 64; Minimal Inhibitory Concentration (MIC) SA 446 [6]: 64; Minimal Inhibitory Concentration (MIC) Resistant [7]: > 128; Minimal Inhibitory Concentration (MIC) SH 415 [8]: > 64; Minimal Inhibitory Concentration (MIC) SA 489 [9]: 32

Which results are given for `CC1OC(OC2c3ccc(c(Cl)c3)Oc3cc4cc(c3OC3OC(CO)C(O)C(O)C3OC3CC(C)(NCc5ccc(Cl)cc5)C(O)C(C)O3)Oc3ccc(cc3Cl)C(O)C(N)C(=O)NC(CC(N)=O)C(=O)NC4C(=O)NC3C(=O)NC2C(=O)NC(C(=O)O)c2cc(O)cc(O)c2-c2cc3ccc2O)CC(C)(N)C1O` (stereo not drawn) [Example 2, N^DISACC -(p-CHLOROBENZYL)-DESLEUCYL-A82846B]?
Minimal Inhibitory Concentration (MIC) SA 447 [1]: 2; Minimal Inhibitory Concentration (MIC) SPY C203 [2]: ≤ 0.06; Minimal Inhibitory Concentration (MIC) SH 105 [3]: 2; Minimal Inhibitory Concentration (MIC) Sensitive [4]: 5.2; Minimal Inhibitory Concentration (MIC) SE 270 [5]: 2; Minimal Inhibitory Concentration (MIC) SA 446 [6]: 4; Minimal Inhibitory Concentration (MIC) Resistant [7]: > 81; Minimal Inhibitory Concentration (MIC) SH 415 [8]: 4; Minimal Inhibitory Concentration (MIC) SA 489 [9]: 0.5

How did the “Minimal Inhibitory Concentration (MIC) SA 447” value [1] turn out when `CC1OC(OC2c3ccc(c(Cl)c3)Oc3cc4cc(c3OC3OC(CO)C(O)C(O)C3OC3CC(C)(NCc5ccc(Oc6ccccc6)cc5)C(O)C(C)O3)Oc3ccc(cc3Cl)C(O)C(N)C(=O)NC(CC(N)=O)C(=O)NC4C(=O)NC3C(=O)NC2C(=O)NC(C(=O)O)c2cc(O)cc(O)c2-c2cc3ccc2O)CC(C)(N)C1O` (stereo not drawn) [Example 3, N^DISACC -(p-PHENOXYBENZYL)-DESLEUCYL-A82846B] was run?
The value was 1.

What about the “Minimal Inhibitory Concentration (MIC) SPY C203” value [2] of the same compound?
Its value is at most 0.06.

What about the “Minimal Inhibitory Concentration (MIC) SH 105” value [3] of the same compound?
Its value is 2.

What about the “Minimal Inhibitory Concentration (MIC) Sensitive” value [4] of the same compound?
The value was 14.

What about the “Minimal Inhibitory Concentration (MIC) SE 270” value [5] of the same compound?
The value was 0.5.

What about the “Minimal Inhibitory Concentration (MIC) SA 446” value [6] of the same compound?
The value was 2.

What about the “Minimal Inhibitory Concentration (MIC) SPN P1” value [10] of the same compound?
The value was “≤ .06”.

What about the “Minimal Inhibitory Concentration (MIC) Resistant” value [7] of the same compound?
The value was 45.

What about the “Minimal Inhibitory Concentration (MIC) SH 415” value [8] of the same compound?
Its value is 1.

What about the “Minimal Inhibitory Concentration (MIC) SA 489” value [9] of the same compound?
The value was 1.

Which “Minimal Inhibitory Concentration (MIC) SA 447” value [1] does the source give for `CC1OC(OC2c3ccc(c(Cl)c3)Oc3cc4cc(c3OC3OC(CO)C(O)C(O)C3OC3CC(C)(NCc5ccc(-c6ccccc6)cc5)C(O)C(C)O3)Oc3ccc(cc3Cl)C(O)C(N)C(=O)NC(CC(N)=O)C(=O)NC4C(=O)NC3C(=O)NC2C(=O)NC(C(=O)O)c2cc(O)cc(O)c2-c2cc3ccc2O)CC(C)(N)C1O` (stereo not drawn) [Example 4, N^DISACC -(p-PHENYLBENZYL)-DESLEUCYL-A82846B] here?
Its value is 1.

What about the “Minimal Inhibitory Concentration (MIC) SPY C203” value [2] of the same compound?
Its value is at most 0.06.

What about the “Minimal Inhibitory Concentration (MIC) SH 105” value [3] of the same compound?
Its value is 1.

What about the “Minimal Inhibitory Concentration (MIC) Sensitive” value [4] of the same compound?
The value was 3.4.

And the “Minimal Inhibitory Concentration (MIC) SE 270” value [5]?
Its value is 1.

And the “Minimal Inhibitory Concentration (MIC) SA 446” value [6]?
The value was 2.

And the “Minimal Inhibitory Concentration (MIC) SPN P1” value [10]?
The value was 0.125.

What about the “Minimal Inhibitory Concentration (MIC) Resistant” value [7] of the same compound?
Its value is 16.

What about the “Minimal Inhibitory Concentration (MIC) SH 415” value [8] of the same compound?
The value was 1.

And the “Minimal Inhibitory Concentration (MIC) SA 489” value [9]?
The value was 0.25.

With `CCCCc1ccc(CNC2(C)CC(OC3C(Oc4c5cc6cc4Oc4ccc(cc4Cl)C(OC4CC(C)(N)C(O)C(C)O4)C4NC(=O)C(NC(=O)C6NC(=O)C(CC(N)=O)NC(=O)C(N)C(O)c6ccc(c(Cl)c6)O5)c5ccc(O)c(c5)-c5c(O)cc(O)cc5C(C(=O)O)NC4=O)OC(CO)C(O)C3O)OC(C)C2O)cc1` (stereo not drawn) [Example 5, N^DISACC -(p-n-BUTYLBENZYL)-DESLEUCYL-A82846B] as the compound, how does the “Minimal Inhibitory Concentration (MIC) SA 447” value [1] read?
Its value is 2.

What about the “Minimal Inhibitory Concentration (MIC) SPY C203” value [2] of the same compound?
Its value is 0.125.

What about the “Minimal Inhibitory Concentration (MIC) SH 105” value [3] of the same compound?
Its value is 1.

And the “Minimal Inhibitory Concentration (MIC) Sensitive” value [4]?
Its value is 9.2.

And the “Minimal Inhibitory Concentration (MIC) SE 270” value [5]?
The value was 1.

What about the “Minimal Inhibitory Concentration (MIC) SA 446” value [6] of the same compound?
Its value is 1.

What about the “Minimal Inhibitory Concentration (MIC) SPN P1” value [10] of the same compound?
The value was 0.25.

What about the “Minimal Inhibitory Concentration (MIC) Resistant” value [7] of the same compound?
Its value is 108.

What about the “Minimal Inhibitory Concentration (MIC) SH 415” value [8] of the same compound?
The value was 2.

And the “Minimal Inhibitory Concentration (MIC) SA 489” value [9]?
Its value is 1.

`CC1OC(OC2c3ccc(c(Cl)c3)Oc3cc4cc(c3OC3OC(CO)C(O)C(O)C3OC3CC(C)(NCc5ccc(-c6ccc(Cl)cc6)cc5)C(O)C(C)O3)Oc3ccc(cc3Cl)C(O)C(N)C(=O)NC(CC(N)=O)C(=O)NC4C(=O)NC3C(=O)NC2C(=O)NC(C(=O)O)c2cc(O)cc(O)c2-c2cc3ccc2O)CC(C)(N)C1O` (stereo not drawn) [Example 6, N^DISACC -(p-(p-CHLOROPHENYL)-BENZYL)DESLEUCYL-A82846B] was tested. Which “Minimal Inhibitory Concentration (MIC) SA 447” value [1] did it give?
Its value is 1.

And the “Minimal Inhibitory Concentration (MIC) SPY C203” value [2]?
Its value is “≤ .06”.

What about the “Minimal Inhibitory Concentration (MIC) SH 105” value [3] of the same compound?
The value was 0.5.

And the “Minimal Inhibitory Concentration (MIC) Sensitive” value [4]?
The value was 2.6.

And the “Minimal Inhibitory Concentration (MIC) SE 270” value [5]?
The value was 0.5.

What about the “Minimal Inhibitory Concentration (MIC) SA 446” value [6] of the same compound?
The value was 2.

And the “Minimal Inhibitory Concentration (MIC) SPN P1” value [10]?
The value was 0.25.

And the “Minimal Inhibitory Concentration (MIC) Resistant” value [7]?
The value was 6.7.

And the “Minimal Inhibitory Concentration (MIC) SH 415” value [8]?
Its value is 1.

And the “Minimal Inhibitory Concentration (MIC) SA 489” value [9]?
Its value is 2.

`CC1OC(OC2c3ccc(c(Cl)c3)Oc3cc4cc(c3OC3OC(CO)C(O)C(O)C3O)Oc3ccc(cc3Cl)C(O)C(N)C(=O)NC(CC(N)=O)C(=O)NC4C(=O)NC3C(=O)NC2C(=O)NC(C(=O)O)c2cc(O)cc(O)c2-c2cc3ccc2O)CC(C)(N)C1O` (stereo not drawn) [Example 7, N^DISACC -DES-EPIVANCOAMINYL-DESLEUCYL-A82846B] was tested. Which “Minimal Inhibitory Concentration (MIC) SA 447” value [1] did it give?
The value was 64.

What about the “Minimal Inhibitory Concentration (MIC) SPY C203” value [2] of the same compound?
Its value is 4.

And the “Minimal Inhibitory Concentration (MIC) SH 105” value [3]?
Its value is 64.

What about the “Minimal Inhibitory Concentration (MIC) Sensitive” value [4] of the same compound?
The value was 56.

And the “Minimal Inhibitory Concentration (MIC) SE 270” value [5]?
Its value is over 64.

And the “Minimal Inhibitory Concentration (MIC) SA 446” value [6]?
The value was 32.

And the “Minimal Inhibitory Concentration (MIC) SPN P1” value [10]?
The value was 2.

And the “Minimal Inhibitory Concentration (MIC) Resistant” value [7]?
The value was over 128.

And the “Minimal Inhibitory Concentration (MIC) SH 415” value [8]?
The value was over 64.

And the “Minimal Inhibitory Concentration (MIC) SA 489” value [9]?
Its value is 8.

What does the source list for `CC1OC(OC2c3ccc(c(Cl)c3)Oc3cc4cc(c3OC3OC(CO)C(O)C(O)C3OC3CC(C)(NCCCCCCCCc5ccccc5)C(O)C(C)O3)Oc3ccc(cc3Cl)C(O)C(N)C(=O)NC(CC(N)=O)C(=O)NC4C(=O)NC3C(=O)NC2C(=O)NC(C(=O)O)c2cc(O)cc(O)c2-c2cc3ccc2O)CC(C)(N)C1O` (stereo not drawn) [Example 8, N^DISACC -(8-PHENYL-n-OCTYL)DESLEUCYL-A82846B]?
Minimal Inhibitory Concentration (MIC) SA 447 [1]: 2; Minimal Inhibitory Concentration (MIC) SPY C203 [2]: 0.125; Minimal Inhibitory Concentration (MIC) SH 105 [3]: 0.25; Minimal Inhibitory Concentration (MIC) Sensitive [4]: 0.76; Minimal Inhibitory Concentration (MIC) SE 270 [5]: 1; Minimal Inhibitory Concentration (MIC) SA 446 [6]: 4; Minimal Inhibitory Concentration (MIC) SPN P1 [10]: 0.125; Minimal Inhibitory Concentration (MIC) Resistant [7]: 5.7; Minimal Inhibitory Concentration (MIC) SH 415 [8]: 2; Minimal Inhibitory Concentration (MIC) SA 489 [9]: 1
